# Results as given in patent publication US20030134859A1 (SANKYO COMPANY, LIMITED, priority 2000, published 2003).
# Where a name gives a salt, the structure may show the parent alone.
# System: Mouse preadipocyte strain 3T3-L1
# Test: Inhibition of differentiation as an indication of acetic acid uptake
# Assay type: cell-based
# Details: 0.1 μM test substance, control (0.01% dimethylsulfoxide) = 100%
# In short: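 Differentiation is indexed by 1 hr [2-14C]acetic acid incorporation, measured by scintillation counting and given as uptake relative to 0.01% DMSO control (100%). Mouse 3T3-L1 preadipocytes, pre-grown 10 days, received 0.1 μM test substance throughout a 4-day insulin/IBMX/dexamethasone induction, followed by 2 days' maintenance culture.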
row,Compound,Rate of Uptake (%) of [2-14C] acetic acid [%]
1,O=C(Nc1cccc(C(=O)N2CCCC2)c1)c1cc([N+](=O)[O-])ccc1Cl [Example 31],85.9
2,"Cc1ccc(S(=O)(=O)Nc2ccc(NC(=O)c3cc([N+](=O)[O-])ccc3Cl)cc2)cc1 [Example 32, N-[4-(4-Methylbenzene)sulfonylaminophenyl]-(2-chloro-5-nitrophenyl)carboxamide]",60.5
3,"O=C(Nc1ccncc1)c1cc([N+](=O)[O-])ccc1Cl [Example 49, N-(4-Pyridyl)-(2-chloro-5-nitrophenyl)carboxamide]",69.6
4,O=C(Nc1ccc(Cl)nn1)c1cc([N+](=O)[O-])ccc1Cl [Example 89],58.1
5,N-[4-(4-Methylbenzoylamino)phenyl]phenyl]-(2-chloro-5-nitrophenyl)carboxamide [Example 122],75.4

# Same assay, conditions: Mus musculus, 0.1 μM test substance, control (0.01% dimethylsulfoxide) = 100%, read-out: Rate of Uptake (%) of [2-14C] acetic acid
row,Compound,activity at 0.1 µM [%]
1,"O=C(Nc1ccc(-c2ccc([N+](=O)[O-])cc2)cc1)c1cc([N+](=O)[O-])ccc1Cl [Example 9, N-[4-(4-Nitrophenyl)phenyl)-(2-chloro-5-nitrophenyl)carboxamide]",59.9
2,"O=C(Nc1ccc([N+](=O)[O-])cc1)c1cc([N+](=O)[O-])ccc1Cl [Example 23, N-(4-Nitrophenyl)-(2-chloro-5-nitrophenyl)carboxamide]",59.5
3,"O=C(Nc1ccc([N+](=O)[O-])cn1)c1cc([N+](=O)[O-])ccc1Cl [Example 24, N-(5-Nitropyridin-2-yl)-(2-chloro-5-nitrophenyl)carboxamide]",66.1
4,"O=C(Nc1cccc([N+](=O)[O-])c1)c1cc([N+](=O)[O-])ccc1Cl [Example 25, N-(3-Nitrophenyl)-(2-chloro-5-nitrophenyl)carboxamide]",66.3
5,"O=C(Nc1cc([N+](=O)[O-])ccc1Cl)c1cc([N+](=O)[O-])ccc1Cl [Example 28, N-(2-Chloro-5-nitrophenyl)-(2-chloro-5-nitrophenyl)carboxamide]",87.8
6,"O=C(Nc1nc2ccc([N+](=O)[O-])cc2s1)c1cc([N+](=O)[O-])ccc1Cl [Example 34, N-(6-Nitrobenzothiazol-2-yl)-(2-chloro-5-nitrophenyl)carboxamide]",60.8
7,"O=C(Nc1ccc(NC(=O)c2cc([N+](=O)[O-])ccc2Cl)nc1)c1cc([N+](=O)[O-])ccc1Cl [Example 64, 2,5-bis(2-Chloro-5-nitrobenzoylamino)pyridine]",96.2

# Same assay, conditions: Mus musculus, 3T3-L1, 0.1 μM test substance, control (0.01% dimethylsulfoxide) = 100%, read-out: Rate of Uptake (%) of [2-14C] acetic acid
row,Compound,activity at 0.1 µM [%]
1,"CCCc1ccc(NC(=O)c2cc([N+](=O)[O-])ccc2Cl)cc1 [Example 15, N-(4-Propylphenyl)-(2-chloro-5-nitrophenyl)carboxamide]",78.4
2,"O=C(Nc1ccc(OC(F)(F)F)cc1)c1cc([N+](=O)[O-])ccc1Cl [Example 18, N-(4-Trifluoromethyloxyphenyl)-(2-chloro-5-nitrophenyl)carboxamide]",53.8
3,"N#Cc1cccc(NC(=O)c2cc([N+](=O)[O-])ccc2Cl)c1 [Example 21, N-(3-Cyanophenyl)-(2-chloro-5-nitrophenyl)carboxamide]",70.3
4,"O=C(Nc1nc(-c2cccs2)cs1)c1cc([N+](=O)[O-])ccc1Cl [Example 36, N-[4-(2-Thienyl)thiazol-2-yl)-(2-chloro-5-nitrophenyl)carboxamide]",29.2
5,"O=C(Nc1nc(-c2ccc3ccccc3c2)cs1)c1cc([N+](=O)[O-])ccc1Cl [Example 42, N-[4-(2-Naphthyl)thiazol-2-yl)-(2-chloro-5-nitrophenyl)carboxamide]",60
6,"O=C(Nc1cnc2ccccc2c1)c1cc([N+](=O)[O-])ccc1Cl [Example 55, N-(3-Quinolinyl)-(2-chloro-5-nitrophenyl)carboxamide]",55.4
7,"O=C(Nc1ccc(Cl)nc1)c1cc([N+](=O)[O-])ccc1Cl [Example 62, N-(6-Chloropyridin-3-yl)-(2-chloro-5-nitrophenyl)carboxamide]",82.9
8,"O=C(Nc1nc2cc(Cl)ccc2o1)c1cc([N+](=O)[O-])ccc1Cl [Example 75, N-(5-Chlorobenzoxazol-2-yl)-(2-chloro-5-nitrophenyl)carboxamide]",80.1
9,"O=C(Nc1ncc(Br)cn1)c1cc([N+](=O)[O-])ccc1Cl [Example 77, N-(5-Bromopyrimidin-2-yl)-(2-chloro-5-nitrophenyl)carboxamide]",62.7
10,"Nc1ccc(-c2ccc(NC(=O)c3cc([N+](=O)[O-])ccc3Cl)cc2)cc1 [Example 88, N-[4-(4-Aminophenyl)phenyl]-(2-chloro-5-nitrophenyl)carboxamide mono-hydrochloride]",56.4
11,"Cc1c(C)c2c(c(C)c1O)C(=O)CC(C)(COc1ccc(NC(=O)c3cc([N+](=O)[O-])ccc3Cl)cc1)O2 (stereo not drawn) [Example 92, N-[4-(6-Hydroxy-2,5,7,8-tetramethyl-4-oxochroman-2-ylmethoxy)phenyl]-(2-chloro-5-nitrophenyl)carboxamide]",63
12,"CS(=O)(=O)Nc1ccc(-c2ccc(NC(=O)c3cc([N+](=O)[O-])ccc3Cl)cc2)cc1 [Example 93, N-[4-[4-(Methanesulfonylamino)phenyl]phenyl]-(2-chloro-5-nitrophenyl)carboxamide]",90.3
13,"Cc1ccc(S(=O)(=O)Nc2ccc(-c3ccc(NC(=O)c4cc([N+](=O)[O-])ccc4Cl)cc3)cc2)cc1 [Example 94, N-[4-[4-(4-Toluenesulfonylamino)phenyl]phenyl]-(2-chloro-5-nitrophenyl)carboxamide]",80.4
14,"Cc1nnc(NS(=O)(=O)c2ccc(NC(=O)c3cc([N+](=O)[O-])ccc3Cl)cc2)s1 [Example 101, N-[4-[(5-Methyl-[1,3,4]thiadiazol-2-yl)aminosulfonyl]phenyl]-(2-chloro-5-nitrophenyl)carboxamide]",78.3
15,"CC(=O)Nc1ccc(-c2ccc(NC(=O)c3cc([N+](=O)[O-])ccc3Cl)cc2)cc1 [Example 118, N-[4-(4-Acetylaminophenyl)phenyl]-(2-chloro-5-nitrophenyl)carboxamide]",79.6
16,"O=C(Nc1ccc(-c2ccc(NC(=O)c3cc([N+](=O)[O-])ccc3Cl)cc2)cc1)c1ccccc1 [Example 120, N-[4-(4-Benzoylaminophenyl)phenyl]-(2-chloro-5-nitrophenyl)carboxamide]",64.6
17,"O=C(Nc1ccc(-c2ccc(NC(=O)c3cc([N+](=O)[O-])ccc3Cl)cc2)cc1)c1cccnc1 [Example 124, N-[4-[4-(Pyridin-3-ylcarbonylamino)phenyl]phenyl]-(2-chloro-5-nitrophenyl)carboxamide]",60
18,"O=C(Nc1cnccn1)c1cc([N+](=O)[O-])ccc1Cl [Example 140, N-(Pyrazin-2-yl)-(2-chloro-5-nitrophenyl)carboxamide]",72.4
19,"Cl.O=C(Nc1ccncc1)c1cc([N+](=O)[O-])ccc1Cl [Example 146, N-(Pyridin-4-yl)-(2-chloro-5-nitrophenyl)carboxamide Hydrochloride]",60
20,"Cc1ccc(C(=O)Nc2nc3ccc(NC(=O)c4cc([N+](=O)[O-])ccc4Cl)cc3s2)cc1 [Example 149, N-[2-(4-Methylbenzoylamino)benzothiazol-6-yl]-(2-chloro-5-nitrophenyl)carboxamide]",76.5

# System: Rat white adipocytes
# Test: Stimulation of differentiation of the adipocytes (Oil Red O)
# Assay type: cell-based
# Details: 100 nM test compound; 5 days; Oil Red O ABS550; control = 100%, blank = 0%; Table 7
# In short: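 Oil Red O lipid staining, absorbance 550 nm after DMSO extraction, quantified differentiation of rat white adipocytes exposed 5 days to compound (final 100 nM, 0.1% DMSO) in differentiation medium. Percent differentiation normalised between cell-free blank (0%) and DMSO control (100%).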
row,Compound,Rate of Differentiation (%)
1,"Cc1ccc(S(=O)(=O)Nc2ccc(NC(=O)c3cc([N+](=O)[O-])ccc3Cl)cc2)cc1 [Example 32, N-[4-(4-Methylbenzene)sulfonylaminophenyl]-(2-chloro-5-nitrophenyl)carboxamide]",114.6

# Same assay, conditions: Rattus norvegicus, Adipocyte, 120 h, 100 nM test compound; 5 days; Oil Red O ABS550; control = 100%, blank = 0%; Table 7; read-out: Rate of Differentiation (%)
row,Compound,activity at 0.1 µM [%]
1,"O=C(Nc1ccc(-c2ccc([N+](=O)[O-])cc2)cc1)c1cc([N+](=O)[O-])ccc1Cl [Example 9, N-[4-(4-Nitrophenyl)phenyl)-(2-chloro-5-nitrophenyl)carboxamide]",116
2,"CCCc1ccc(NC(=O)c2cc([N+](=O)[O-])ccc2Cl)cc1 [Example 15, N-(4-Propylphenyl)-(2-chloro-5-nitrophenyl)carboxamide]",124
3,"O=C(Nc1ccc(OC(F)(F)F)cc1)c1cc([N+](=O)[O-])ccc1Cl [Example 18, N-(4-Trifluoromethyloxyphenyl)-(2-chloro-5-nitrophenyl)carboxamide]",115
4,"O=C(Nc1cc([N+](=O)[O-])ccc1Cl)c1cc([N+](=O)[O-])ccc1Cl [Example 28, N-(2-Chloro-5-nitrophenyl)-(2-chloro-5-nitrophenyl)carboxamide]",111
5,"O=C(Nc1nc2ccc([N+](=O)[O-])cc2s1)c1cc([N+](=O)[O-])ccc1Cl [Example 34, N-(6-Nitrobenzothiazol-2-yl)-(2-chloro-5-nitrophenyl)carboxamide]",140
6,"O=C(Nc1nc(-c2cccs2)cs1)c1cc([N+](=O)[O-])ccc1Cl [Example 36, N-[4-(2-Thienyl)thiazol-2-yl)-(2-chloro-5-nitrophenyl)carboxamide]",111
7,"O=C(Nc1ccc(NS(=O)(=O)c2ccccc2)cc1)c1cc([N+](=O)[O-])ccc1Cl [Example 127, N-(4-Benzenesulfonylaminophenyl)-(2-chloro-5-nitrophenyl)carboxamide]",112
8,"O=C(Nc1ccc(C(=O)N2CCCCC2)cc1)c1cc([N+](=O)[O-])ccc1Cl [Example 159, N-[4-(Piperidylcarbonyl)phenyl]-(2-chloro-5-nitrophenyl)carboxamide]",123
9,"CC(C)(C)c1cc(NS(=O)(=O)c2cccc(NC(=O)c3cc([N+](=O)[O-])ccc3Cl)c2)cc(C(C)(C)C)c1O [Example 161, N-[3-[(3,5-di-tert-Butyl-4-hydroxyphenyl)aminosulfonyl]phenyl]-(2-chloro-5-nitrophenyl)carboxamide]",113
10,"CC(C)(C)c1cc(NS(=O)(=O)c2ccc(NC(=O)c3cc([N+](=O)[O-])ccc3Cl)cc2)cc(C(C)(C)C)c1O [Example 175, N-[4-[(3,5-di-tert-Butyl-4-hydroxyphenyl)aminosulfonyl]phenyl]-(2-chloro-5-nitrophenyl)carboxamide]",114
11,"CCCN(CCC)c1ccc(NC(=O)c2cc([N+](=O)[O-])ccc2Cl)cc1 [Example 182, N-[4-(N,N-Dipropylamino)phenyl]-(2-chloro-5-nitrophenyl)carboxamide]",122
12,"O=C(Nc1nc(-c2ccc([N+](=O)[O-])cc2)cs1)c1cc([N+](=O)[O-])ccc1Cl [Example 246, N-[4-(4-Nitrophenyl)thiazol-2-yl]-(2-chloro-5-nitrophenyl)carboxamide]",120
